The values that follow come from patent US20250388592A1 (REMYND N.V., priority 2022, published 2025).

Each structure is given as a SMILES string.

Usually EC50 stands for the concentration at which the effect is half-maximal.

The subject of this experiment is M17_3TAU(P301L) cells. The experiment in a line: TAU-induced cytotoxicity (LDH) in the neuroblastoma tauopathy model. To be noted: Homo sapiens, 168 h, inhibition of TAU-induced toxicity, 7 days retinoic acid differentiation, LDH readout. The class given is cell-based. The text has this: A TAU expression plasmid was constructed by sub-cloning the cDNA encoding for human TAU-P301L protein, wherein proline at position 301 is substituted by a leucine residue, into mammalian expression vector pcDNA3.1 resulting in the plasmid pcDNA3.1-TAUP301L. Plasmids pcDNA3.1 and pcDNA3.1-TAU P301L were transfected into human neuroblastoma cells (BE-M17; ATCC No. CRL-2267™) using lipofectamine reagent and subsequently, independent clonal cell lines with the plasmids stably integrated into the genome were selected by antibiotic resistance selection (Geneticin (G418)), resulting in cell lines M17.pcDNA3 and M17_3TAUP301L. Expression of the TAUP301 L gene in the M17_3TAUP301 L cells was confirmed by Western blot analysis.
Differentiation of the cells with RA leads to phosphorylation and subsequent aggregation of TAU, inducing a tauopathy in these cells. Cytotoxicity of cells was measured by quantification of lactate dehydrogenase (LDH) levels. In dead cells LDH is leaked out of the cells into the medium due to a loss of plasma-membrane integrity.
Briefly, 3 days preceding the experiment pre-cultures of M17.pcDNA3 and M17_3TAU(P301L) cells were prepared, starting from a stock culture, at a density of 50.000-100.000 cells/cm2 in detection medium (Optimem Reduced Serum without phenol red (Gibco, Cat. 31985-047) supplemented with 1% fetal calf serum (FCS), 1 mM sodium pyruvate, 1×non-essential amino acids (NEAA), 500 μg/ml G418 and 0.5×antibiotic/antimycotic (ABAM)). At the day of the experiment these precultures were diluted to ˜[…] in detection medium without FCS and 60 μL of this suspension is dispensed per well into a 96-well microtiter plate. After 3 hours of incubation at 37° C./5% C02 an equal volume of detection medium containing 2.5 μM RA was added and subsequently incubated for 7 days at 37° C./5% CO2. After 7 days, LDH activity was determined using the Promega Cytotox 96 Non-Radioactive cytotoxicity assay (Cat. G1780), according the manufacturer's instructions. Cytotoxicity is measured as the ratio of LDH increase in the supernatant divided by the LDH increase in the total cell suspension (sum of the LDH measured in cells and supernatant). Toxicity was determined after 7 days of differentiation with retinoic acid in M17_3TAU(P301 L) cells compared to M17.pcDNA3 cells.
The M17_3TAU(P301L) cell line makes it possible to assess the ability of novel compounds to inhibit TAU-induced cytotoxicity. […] Compounds were tested for their ability to hamper TAU-induced toxicity at different concentrations, ranging from low non-effective concentrations to high potent concentrations. Afterwards, the dose-dependent inhibition curve was used to calculate their EC50 (Table 3B).
Compound `O=C(OC1CCC(F)(F)CC1)N1CC2(CN(Cc3c(F)cccc3C(F)(F)F)C2)C1` [Cpd B148] had an EC50 of 396 nM.
The compound `Cc1c(Cl)c(CN2CC3(C2)CN(C(=O)NCC2CCC(F)(F)CC2)C3)nn1C` [Cpd B203] showed an EC50 of 15.5 nM.
The result for `COc1cccc(CN2CC3(C2)CN(C(=O)Nc2ccc(OC(F)F)cc2)C3)c1` [Cpd B186] reads 34 nM.
For `Cc1cccnc1CN1CC2(C1)CN(C(=O)OC1CCC(F)(F)CC1)C2` [Cpd B139] the value was 20.6 nM.
The result for `Cn1cc(Cl)c(CN2CC3(C2)CN(C(=O)OC2CCC(F)(F)CC2)C3)n1` [Cpd B145] reads 2.78 nM; that for `Cc1cccnc1CN1CC2(C1)CN(C(=O)NCC1CCCCC1)C2` [Cpd B177], 5.39 nM.
With `Clc1ccc(Cc2nsc(NC3CC4(CC(NCc5ccc(Cl)c(Cl)c5)C4)C3)n2)cc1` (stereo not shown) [Cpd B306, N-(3-(4-chlorobenzyl)-1,2,4-thiadiazol-5-yl)-N′-(3,4-dichlorobenzyl) spiro[3.3]heptane-2,6-diamine], it took 35.7 nM to reach a half-maximal effect (EC50).
For `O=C(NCC1CCC(F)(F)CC1)N1CC2(CN(Cc3ccc(C(F)(F)F)cc3)C2)C1` [Cpd B200] the value was 29.3 nM; for `COc1cccc(CN2CC3(C2)CN(C(=O)Nc2ccc(Cl)cc2)C3)c1` [Cpd B185], 17.8 nM.
The result for `Cc1cccnc1CN1CC2(C1)CN(C(=O)NCc1cccc(C(F)(F)F)c1)C2` [Cpd B435] reads 390 nM; that for `O=C(CC1CCC(F)(F)CC1)N1CC2(CN(Cc3ccc(F)cn3)C2)C1` [Cpd B115], 41.3 nM; that for `Clc1ccc(Cc2nsc(NC3CC4(CC(NCc5ccc(Cl)cc5Cl)C4)C3)n2)cc1` (stereo not shown) [Cpd B307, N-(3-(4-chlorobenzyl)-1,2,4-thiadiazol-5-yl)-N′-(2,4-dichlorobenzyl) spiro[3.3]heptane-2,6-diamine], 1.3 nM.
The result for `O=C(Cc1ccc(Cl)cc1)N1CC2(CN(Cc3ncc(Cl)cn3)C2)C1` [Cpd B039, 2-(4-chlorophenyl)-1-(6-((5-chloropyrimidin-2-yl)methyl)-2,6-diazaspiro[3.3]heptan-2-yl)ethanone] reads 56.3 nM.
`CS(=O)(=O)c1ccc(CNC2CC3(C2)CC(Nc2nc(Cc4ccc(Cl)cc4)ns2)C3)cc1` (stereo not shown) [Cpd B331, N-(3-(4-chlorobenzyl)-1,2,4-thiadiazol-5-yl)-N′-(4-(methylsulfonyl)benzyl) spiro[3.3]heptane-2,6-diamine] displayed a 50% effective concentration (EC50) of 73.3 nM.
For `Cc1cc(CN2CC3(C2)CN(C(=O)CC2CCC(F)(F)CC2)C3)n[nH]1` [Cpd B449] the value was 119 nM.
For `Cc1nn(C)cc1CN1CC2(C1)CN(C(=O)NCc1ccc(F)cc1)C2` [Cpd B426] the value was 850 nM; for `O=C(Cc1ccc(F)cc1)N1CC2(CN(CCc3ccccc3Cl)C2)C1` [Cpd B063, 1-{6-[2-(2-Chloro-phenyl)-ethyl]-2,6-diaza-spiro[3.3]hept-2-yl}-2-(4-fluoro-phenyl)-ethanone], 3.12 nM; for `O=C(CC1CCC(F)(F)CC1)N1CC2(CN(Cc3ccccc3OC(F)F)C2)C1` [Cpd B111], 3.55 nM.
For `O=C(Cc1ccc(F)cc1)N1CC2(CN(Cc3cccc(Cl)c3)C2)C1` [Cpd B011, 1-[6-(3-Chloro-benzyl)-2,6-diaza-spiro[3.3]hept-2-yl]-2-(4-fluoro-phenyl)-ethanone] the value was 2.07 nM.
`Cc1ncc(CN2CC3(C2)CN(C(=O)NCc2ccc(F)cc2)C3)s1` [Cpd B417]: the concentration for a half-maximal effect (EC50) was found to be 1690 nM.
As for `Cc1ccc(CN2CC3(C2)CN(C(=O)NCc2ccc(F)cc2)C3)o1` [Cpd B191, N-(4-fluorobenzyl)-6-((2-methyl-furan-5-yl)methyl)-2,6-diazaspiro[3.3]heptane-2-carboxamide], a half-maximal effect (EC50) was put at 144 nM.
For the compound `O=C(CC1CCC(F)(F)CC1)N1CC2(CN(Cc3c(F)cccc3C(F)(F)F)C2)C1` [Cpd B110], the EC50 came out at 180 nM.
The result for `O=C(NCc1ccc(F)cc1)N1CC2(CN(Cc3cccnc3F)C2)C1` [Cpd B432] reads 482 nM; that for `Cc1nc(CN2CC3(C2)CN(C(=O)N(C)C2CCC(F)(F)CC2)C3)cs1` [Cpd B172], 102 nM.
In turn, `Cc1nc(CN2CC3(C2)CN(C(=O)Cc2ccc(F)cc2)C3)cs1` [Cpd B019, 2-(4-Fluoro-phenyl)-1-[6-(2-methyl-thiazol-4-ylmethyl)-2,6-diaza-spiro[3.3]hept-2-yl]-ethanone] showed a 50% effective concentration (EC50) of 71.8 nM.
In turn, `COc1ccc(CCCN2CC3(C2)CN(C(=O)Cc2ccc(Cl)cc2)C3)cc1` [Cpd B059, 2-(4-chlorophenyl)-1-(6-(3-(4-methoxyphenyl)propyl)-2,6-diazaspiro[3.3]heptan-2-yl)ethanone] showed an EC50 of 1.23 nM.
Compound `Cc1nc(CN2CC3(C2)CN(C(=O)Cc2cccc(C(F)(F)F)c2)C3)cs1` [Cpd B100] had an EC50 of 261 nM.
For `COc1cccc(CN2CC3(C2)CN(C(=O)CC2CCC(F)(F)CC2)C3)c1` [Cpd B074] the value was 3.61 nM.
The result for `Cc1cccnc1CN1CC2(C1)CN(C(=O)NC1CC(F)(F)C1)C2` [Cpd B170] reads 3440 nM.
Regarding `O=C(Cc1ccc(Cl)cc1)N1CC2(CN(Cc3ccc(Cl)cc3)C2)C1` [Cpd B004, 1-(6-(4-chlorobenzyl)-2,6-diazaspiro[3.3]heptan-2-yl)-2-(4-chlorophenyl)ethanone], the EC50 worked out at 2.86 nM.
For `Cc1cc(CN2CC3(C2)CN(C(=O)Cc2ccc(F)cc2)C3)no1` [Cpd B021, 2-(4-Fluoro-phenyl)-1-[6-(5-methyl-isoxazol-3-ylmethyl)-2,6-diaza-spiro[3.3]hept-2-yl]-ethanone] the value was 167 nM; for `COc1ccc(CNC2CC3(C2)CC(Nc2nc(Cc4ccc(Cl)cc4)ns2)C3)cc1OC` (stereo not shown) [Cpd B317, N-(3-(4-chlorobenzyl)-1,2,4-thiadiazol-5-yl)-N′-(3,4-dimethoxybenzyl) spiro[3.3]heptane-2,6-diamine], 41 nM.
For `N#Cc1ccc(CC(=O)N2CC3(CN(Cc4ccc(F)cc4)C3)C2)cc1` [Cpd B092] the value was 13.9 nM.
For `O=C(Cc1ccccc1F)N1CC2(CN(Cc3ccc(F)cc3)C2)C1` [Cpd B093] the value was 74.6 nM; for `O=C(Cc1ccc(F)cc1)N1CC2(CN(Cc3ccccn3)C2)C1` [Cpd B010, 2-(4-Fluoro-phenyl)-1-(6-pyridin-2-ylmethyl-2,6-diaza-spiro[3.3]hept-2-yl)-ethanone], 47.5 nM.
In turn, `Cc1ncc(CN2CC3(C2)CN(C(=O)CC2CCC(F)(F)CC2)C3)s1` [Cpd B456] registered an EC50 of 73.9 nM.
`Cn1cc(Cl)c(CN2CC3(C2)CN(C(=O)NC2CCC(F)(F)CC2)C3)n1` [Cpd B209] returned a concentration for a half-maximal effect (EC50) of 15.2 nM.
Compound `Fc1ccc(Cc2nsc(NC3CC4(CC(NCc5ccccc5)C4)C3)n2)cc1` (stereo not shown) [Cpd B301, N-benzyl-N′-(3-(4-fluorobenzyl)-1,2,4-thiadiazol-5-yl) spiro[3.3]heptane-2,6-diamine] yielded an EC50 of 11.2 nM.
For `Cc1nc(CN2CC3(C2)CN(C(=O)C(F)(F)c2ccc(F)cc2)C3)cs1` [Cpd B411] the value was 3010 nM; for `Cc1nc(CN2CC3(C2)CN(C(=O)CC2CCC(F)(F)CC2)C3)c(Cl)s1` [Cpd B117], 3.81 nM.
For `O=S(=O)(Cc1ccc(C(F)(F)F)cc1)N1CC2(CN(Cc3ccc(F)cc3)C2)C1` [Cpd B216] the value was 5.69 nM.
The result for `Cc1[nH]cnc1CN1CC2(C1)CN(C(=O)CC1CCC(F)(F)CC1)C2` [Cpd B124] reads 54.4 nM; that for `CC(c1ccccc1)N1CC2(CN(C(=O)Cc3ccc(F)cc3)C2)C1` (stereo not shown) [Cpd B016, 2-(4-Fluoro-phenyl)-1-[6-(1-phenyl-ethyl)-2,6-diaza-spiro[3.3]hept-2-yl]-ethanone], 5.51 nM; that for `COc1cccc(CN2CC3(C2)CN(C(=O)OCc2ccc(Cl)cc2)C3)c1` [Cpd B463], 41.7 nM.
Take `Cc1ccc(CNC2CC3(C2)CC(Nc2nc(Cc4ccc(Cl)cc4)ns2)C3)c(C)c1` (stereo not shown) [Cpd B319, N-(3-(4-chlorobenzyl)-1,2,4-thiadiazol-5-yl)-N′-(2,4-dimethylbenzyl) spiro[3.3]heptane-2,6-diamine]: the midpoint of the response, the EC50, lay at 2.1 nM.
The result for `O=C(Cc1ccc(Cl)cc1)N1CC2(CN(CCc3ccccc3Cl)C2)C1` [Cpd B062, 1-(6-(2-chlorophenethyl)-2,6-diazaspiro[3.3]heptan-2-yl)-2-(4-chlorophenyl)ethanone] reads 1.08 nM.
